Here are results for six compounds from patent US7709532B2, “Methods for improving bioavailability of a renin inhibitor” (Novartis AG, priority 2004, dated 2010).

One data set in a line: in vitro. The following applies: human, Caco-2. The text has this:
(§1) Alternatively, the in vitro transporter affinity of a drug substance can be determined and approximated by a Caco-2 cell assay as described, e.g., in Camenisch et al., Pharm. Act. Helv. 71, 309-327 (1996), or as illustrated herein in the Examples. The identification of the transporter protein and the efficacy of a compound to inhibit the efflux system involved may as well be determined in the Caco-2 cell assay.
(§2) Caco-2 cell monolayers grown on PET filters for 21-25 days are used for the transport experiments. The flux of compounds across Caco-2 cell monolayers grown on PET filters as well as across PET filters alone without Caco-2 cells is determined as follows: Prior to the transport experiment, the culture medium in the acceptor compartment (0.2 mL for apical and 1.0 mL for basolateral sides) is replaced with acceptor solution (HBSS, when relevant containing the inhibitor of interest) preincubated at 37° C. To start the experiment, the medium in the donor compartment (0.35 mL for apical and 1.15 mL for basolateral sides) is replaced with donor solution (compound in HBSS, when relevant containing inhibitor of interest) pre-incubated at 37° C. Aliquots of 150 μL are removed from the donor and the acceptor side after about 1 and 120 min. Transport experiments in both apical-to-basolateral and basolateral-to-apical directions are performed in triplicate at 37° C. in an incubator without shaking.
(§3) The suitability of Caco-2 cells for transport experiments is examined by measuring the permeability of [^3H]-mannitol at >0.1 μM and [^3H]-propranolol at >0.1 μM from apical to basolateral sides for 120 min in a total of 6 representative cell monolayers (3 for each compound) within the same batch of cells.
(§4) Radioactive samples are analyzed by liquid scintillation counting. All other non-radiolabeled samples are kept frozen at −20° C. until analysis by liquid chromatography/tandem mass spectrometry (LC-MS/MS).
(§5) Transport values of the compounds tested are determined using the following equation (Artursson et al., Biochem. Biophys. Res. Comm. 175: 880-885, 1991):
(§6) Papp values are presented as means ± standard deviations of the transport experiments performed (n=3). The statistical significance in differences between any two given data sets is examined by t-test. The probability level for assignment of significance of difference is p<0.025. All statistical analyses were performed using Microsoft EXCEL 5.0c.

Data set [1] can be described thus: In situ bile-duct cannulated rat experiment (biliary clearance). As to conditions: for effect on 14C concentration in plasma: i.v. bolus of inhibitor (PSC833 10 mg/kg, probenecid 50 mg/kg) during constant infusion of [14C]-SPP100 hemifumarate.
Protocol: The effect in situ of co-administration of an efflux protein inhibitor, e.g., a MDR1 inhibitor, on the biliary excretion of a renin inhibitor may be investigated by comparing the amount of compound excreted into bile, in the presence and the absence of an efflux protein inhibitor.
The animals that may be used are, e.g., male albino HAN:WIST rats, 4 to 5 animals in each treatment group.
For all treatment groups blood samples are collected at 0.5, 1, 1.33, 1.67, 2, 2.33, 2.67, 3 h after treatment and blood is immediately processed to plasma. Bile is collected for the time frame of 1 to 3 h in intervals of 20 min.
• for total radioactivity in all samples: LSC; LOQ 3.4 μg/L for plasma and bile; and • for detection of metabolite pattern in selected pools of samples: HPLC with radioactivity detection.
The subject of another data set is Caco-2 cell monolayers. Nature of the data set: in vitro. The following applies: human, Caco-2, 120 min.
Excerpt: as §1, §2, §3, §4, §5, §6

A short description of data set [2]: In vivo bioavailability experiment, single oral administration. The following applies: for Cmax / Tmax: male, HAN:WIST, rat, plasma, po. Also on record: species or system rat.
Excerpt: Similarly, the effect in vivo of co-administration of an efflux protein inhibitor, e.g., a MDR1 inhibitor, on the bioavailability of a renin inhibitor may be investigated by comparing the pharmacokinetic parameters, Cmax and AUCs, in the presence and the absence of an efflux protein inhibitor.
The animals that may be used are, e.g., male albino HAN:WIST rats, 5 animals in each treatment group.
Plasma is used for biochemical analysis.
Data set [3] deals with T1, COCCCOc1cc(C[C@@H](C[C@H](N)[C@@H](O)C[C@H](C(=O)NCC(C)(C)C(N)=O)C(C)C)C(C)C)ccc1OC.
T1 construct: host or cells: Sf9 (Spodoptera frugiperda) membrane vesicles
The data set is described as follows: ATPase assay in membrane vesicles expressing high levels of MDR1. As to conditions: other: membrane vesicles expressing high levels of MDR1; pH 7.4; 37.0 °C. In kind it is biochemical, human.
Excerpt: The efflux protein(s) involved in the drug efflux of a drug substance may be identified, and the corresponding kinetic parameters may be determined, i.e., Michaelis-Menten Constant and Maximal Drug Transport (Km and Jmax) using methods known in the art, e.g., by an ATPase assay using Sf9 (Spodoptera fruigiperda) membrane vesicles expressing high levels of the selected ABC transporter. In this assay the ABC transporters remove substrates out of cells by using ATP hydrolysis as an energy source. ATP hydrolysis yields inorganic phosphate (Pi), which can be detected by a simple colorimetric reaction. The amount of Pi liberated by the transporter is proportional to the activity of the transporter. Membrane preparations containing ABC transporters show a baseline ATPase activity that varies for different transporters. […]
Efflux mediated by the human MDR1, the human MRP1 or the human MRP2 is measured by incubating the purified membrane vesicles in the absence and the presence of a stimulating agent (Verapamil [40 μM] for MDR1, NEM-GS [10 mM] for MRP1 and Probenecid [1 mM] for MRP2) with different concentrations of a drug substance [0.046, 0.137, 0.41, 1.23, 3.7, 11.1, 33.3 and 100 μM] in transport buffer at pH 7.4 at 37° C. […]
After incubating the OD is measured at 730 nm. Using a previously determined phosphate standard curve the Pi liberated [nmol/well] can be calculated. […]

Setting [4] is: probenecid 50 mg/kg i.v. during constant infusion of [14C]-SPP100 hemifumarate.
Where [5] appears, read: 6 mg base/kg, rat plasma, oral SPP100 hemifumarate 6 mg base/kg + vehicle.
Where [6] appears, read: 6 mg/kg, oral SPP100 6 mg base/kg + PSC833 5 mg/kg.
Where [7] appears, read: 6 mg/kg, oral SPP100 6 mg base/kg + PSC833 12.5 mg/kg.
The mark [8] stands for this setting: 6 mg/kg, oral SPP100 6 mg base/kg + PSC833 25 mg/kg.
Setting [9] is: 6 mg/kg, oral SPP100 6 mg base/kg + PSC833 50 mg/kg.

As usually defined, the Papp A→B is how fast a substance crosses the layer from the apical side. A high value points to fast passage. Broadly, the Papp B→A is the apparent permeability from the basolateral to the apical side of a cell layer. A word on the Cmax: it is the highest concentration seen after dosing. For orientation: Tmax means the time at which the peak concentration occurs. The Km is the substrate concentration at which the rate is half of its maximum.

Bounds are passed on as bounds.

In “in vitro”, `CC(C)NCC(O)COc1cccc2ccccc12` (centres unmarked) [Propranolol, reference compound] gave a Papp A→B at 120 min of under 15 ×10⁻⁶ cm/s.

For `C/C=C/C[C@@H](C)C(=O)[C@H]1C(=O)N[C@@H](C(C)C)C(=O)N(C)CC(=O)N(C)[C@@H](CC(C)C)C(=O)N[C@@H](C(C)C)C(=O)N(C)[C@@H](CC(C)C)C(=O)N[C@@H](C)C(=O)N[C@H](C)C(=O)N(C)[C@@H](CC(C)C)C(=O)N(C)[C@@H](CC(C)C)C(=O)N(C)[C@@H](C(C)C)C(=O)N1C` [PSC833], the “effect on 14C concentration in bile” value in data set [1] (PSC833 10 mg/kg i.v. during constant infusion of [14C]-SPP100 hemifumarate) is given as “significant decrease”. Further, the “effect on 14C concentration in plasma” value in data set [1] is on record as “trend towards a time dependent increase”. The “biliary clearance of [14C]-labeled compounds, % of the value obtained before administration” value in data set [1] (i.v. bolus of inhibitor during constant i.v. infusion of [14C]-SPP100 hemifumarate, PSC833 10 mg/kg) was “approximately 7%”.

For the compound `OC[C@@H](O)[C@@H](O)[C@H](O)[C@H](O)CO` [Mannitol, reference compound], the Papp A→B at 120 min in the data set “in vitro” is under 0.5 ×10⁻⁶ cm/s.

In the case of `CCCN(CCC)S(=O)(=O)c1ccc(C(=O)O)cc1` [probenecid], the “effect on 14C concentration in plasma” value in data set [1] was “no effect”. Besides, in data set [1] (setting [4]), the “biliary clearance before and after administration” value is listed as “similar”; the “decrease of the [14C] concentration in bile vs value prior to administration” value is given as “about 40%”.

As to `COCCCOc1cc(C[C@@H](C[C@H](N)[C@@H](O)C[C@H](C(=O)NCC(C)(C)C(N)=O)C(C)C)C(C)C)ccc1OC` [SPP100, (2S,4S,5S,7S)-5-amino-4-hydroxy-2-isopropyl-7-[4-methoxy-3-(3-methoxy-propoxy)-benzyl]-8-methyl-nonanoic acid (2-carbamoyl-2-methyl-propyl)-amide hemifumarate], in the data set “in vitro”, the Papp A→B at 120 min, 1 μM was about 0.0333 ×10⁻⁶ cm/s. This compound had an apical-to-basolateral permeability (Papp A→B) at 120 min, 10 µM in “in vitro” of about 1.17 ×10⁻⁶ cm/s. The compound further had a Papp B→A at 120 min, 1 µM in the data set “in vitro” of about 1.67 ×10⁻⁶ cm/s. In the data set on Caco-2 cell monolayers, the intrinsic permeability is under 80%. Also, the Cmax is about 24.8 ng/mL in data set [2] (setting [5]); 35.7 ± 18 ng/mL in data set [2] (setting [6]); 115 ± 93 ng/mL in data set [2] (setting [7]); 81.4 ± 19 ng/mL in data set [2] (setting [8]); 26.7 ± 18 ng/mL in data set [2] (setting [9]). Besides, the Tmax in data set [2] (setting [5]) was determined as 0.44 ± 0.1 h; in data set [2] (setting [6]) it was 4.8 ± 1.8 h; in data set [2] (setting [7]) it was 4.95 ± 4.2 h; in data set [2] (setting [8]) it was 15.2 ± 18 h; in data set [2] (setting [9]), 3.06 ± 1.9 h. Also, the “dose-normalized AUC(0-tlast), times higher than in the vehicle group” value in data set [2] (oral SPP100 6 mg base/kg + PSC833 5 mg/kg) is “about 23 times”; in data set [2] (oral SPP100 6 mg base/kg + PSC833 12.5 mg/kg), about 69 times; in data set [2] (oral SPP100 6 mg base/kg + PSC833 25 mg/kg) it was about 76 times; in data set [2] (oral SPP100 6 mg base/kg + PSC833 50 mg/kg) it was about 17 times. Besides, in data set [2] (orally dosed rats, in the presence of PSC833), the “increase of dose-normalized AUC(0-tlast) compared to control group solely dosed with SPP100” value is “about 70 fold”. Further, the “dose-normalized AUC(0-tlast)” value in data set [2] (rat plasma, oral SPP100 hemifumarate 6 mg base/kg + vehicle) is given as 2.38±3.4 (ng*h/mL)/(mg/kg).

As to human MDR1 (Homo sapiens), in data set [3], the Michaelis constant (Km) is 3 µM.
